System: mitochondrial Na+/Ca2+ exchanger
Assay: fura-2 [Ca2+]i plateau after depolarization in intact neurons
Assay type: cell-based, Aquarana catesbeiana

O=C1CSC(c2ccccc2Cl)c2cc(Cl)ccc2N1 (stereo not shown) [CGP, CGP 37157]
IC50: ~0.56 µM

Reference: publication PMC2217215 (The Journal of General Physiology, 2000)
